Measured values: patent publication US20040077674A1, “Mappicine analogs, intermediates in the synthesis of mappicine analogs and methods of synthesis of mappicine analogs” (priority 2002, published 2004)

biological target: T1, RNase H activity of HIV reverse transcriptase (Human immunodeficiency virus type 1 group M subtype B, UniProt P03366); assay: Fluorescence (FRET)-based RNase H assay of HIV reverse transcriptase; assay type: biochemical, HIV-1; conditions: 20 μM inhibitor concentration
T1 construct: 2.5 nM of the p51/p66 RT heterodimer in the assay; made in house
Description: Recently, a fluorescence-based assay to perform screens in search of HIV RNase H inhibitors has been developed. The assay, which is carried out in 96-well microplates and is adaptable to robotics, is the first high-throughput screen for RNase H and is described in further detail in the Experimental section. HIV-1 RT and human RNase H were cloned, and thus comparative analysis of inhibitor action could be conducted simultaneously.
The assay for RNase H activity of HIV reverse transcriptase was the fluorescence-based assay described in detail in the Experimental section and discussed in U.S. Provisional Patent Application Serial No. 60/318,359. Assays were carried out in the absence and in the presence of mappicine analogs (10 μM or 20 μM final concentration). The results are reported as % residual activity, which is the RNase H activity of the enzyme in the presence of the mappicine analog divided by the RNase H activity of the enzyme in the absence of the mappicine analog, multiplied by 100. Alternatively, the results are reported as % inhibition, which is calculated as the ratio of the RNase H activity of the enzyme in the presence of the mappicine analog to the enzyme activity in the absence of the mappicine analog, multiplied by 100, and then subtracting this number from 100.
Assay for Ribonuclease H Activity Based on Fluorescence Resonance Energy Transfer (FRET)
Preparation of the Fluorophore-RNA/Quencher-DNA Hybrid Duplex Substrate.
The RNA/DNA hybrid duplex substrate for use in the assay comprises an RNA oligonucleotide of sequence 5′-GAU CUG AGC CUG GGA GCU-3′, modified at the 3′-end with Aminolink-2 and derivatized with fluorescein isothiocyanate, to provide a modified RNA oligonucleotide of the sequence 5′-GAU CUG AGC CUG GGA GCU-fluorescein-3′, annealed to a complementary DNA oligonucleotide of the sequence 5′-AGC TCC CAG GCT CAG ATC-3′ modified at the 5′-end with Aminolink-2 and derivatized with the FRET acceptor DABCYL succinimidyl ester, to provide a modified DNA oligonucleotide of the sequence 5′-DABCYL-AGC TCC CAG GCT CAG ATC-3′.
To prepare the 3′-fluorescein-RNA/5′-DABCYL-DNA hybrid duplex substrate, a known amount of 3′-fluorescein-RNA was dissolved in 20 mM Tris buffer (pH 8.0, 37° C.) to provide a final concentration of 5 μM. Two equivalents of the 5′-DABCYL-DNA oligonucleotide were added, and the mixture was heated to 90° C. for 5 min and cooled slowly to room temperature to allow duplex formation. The positioning of the fluorescein donor at the 3′-end of the RNA oligonucleotide and the DABCYL acceptor at the 5′-end of the DNA oligonucleotide provides a very close proximity of the donor and acceptor that results in a very intense quenching of the fluorescein emission in the intact RNA/DNA hybrid duplex substrate due to the spectral overlap of the fluorescence emission of fluorescein with the absorption spectrum of DABCYL. In addition, DABCYL is non-fluorescent, and thus cannot contribute any light emission. Both of these factors result in a very low background and provide a high signal-to-noise in the assay measurements. The ratio of the donor fluorescence in the absence and in the presence of its quencher is approximately fifteen-fold.
Microplate Assay Protocol for the Measurement of RNase H Activity Using the RNA/IDNA Hybrid Duplex Substrate.
Reaction assay mixtures contained 5 μl of a stock solution of 2.5 μM RNA/DNA hybrid duplex substrate added to 85 μl of assay buffer (50 mM Tris, pH 8.0, 37° C., containing 60 mM KCl and 2.5 mM MgCl2), prepared in the wells of a 96-well fluorescence microtiter plate, and warmed to 37° C. using the temperature control of the SpectraMax Gemini XS microplate spectrofluorometer (Molecular Devices). Reactions were started by the addition of 5 μl of a solution of recombinant HIV-1 reverse transcriptase (usually providing a final concentration of 2.5 nM of the p51/p66 RT heterodimer in the assay), and mixing using the automatic mixing function of the microplate spectrofluorometer. […]

| Compound | % inhibition of RNase H at 20 μM [%] | inhibition at 20 µM [%] |
| --- | --- | --- |
| CCCCCc1c2c(nc3ccc(C(F)(F)F)cc13)-c1cc(C(O)CCC3CCCCC3)c(C)c(=O)n1C2 (stereo not drawn) [Compound 7.7.4] | 75 |  |
| CCc1c2c(nc3ccc(C)cc13)-c1cc(C(O)C(C)CC)c(C)c(=O)n1C2 (stereo not drawn) [Compound 4.4.9] | 60 |  |
| CCCCc1c2c(nc3ccc(C(F)(F)F)cc13)-c1cc(C(O)CC)c(C)c(=O)n1C2 (stereo not drawn) [Compound 3.6.4] | 62 |  |
| CCCC(O)c1cc2n(c(=O)c1C)Cc1c-2nc2ccc(C)cc2c1-c1ccccc1 (stereo not drawn) [Compound 2.8.9, 7-(1-Hydroxybutyl)-2,8-dimethyl-1 2-phenyl-11H-indolizino[1,2-b]quinolin-9-one] |  | 78 |
| CCCCCc1c2c(nc3ccc(OC)cc13)-c1cc(C(O)C(C)CC)c(C)c(=O)n1C2 (stereo not drawn) [Compound 4.7.3] | 60 |  |
| CCCCCc1c2c(nc3ccc(C(F)(F)F)cc13)-c1cc(C(O)C(C)CC)c(C)c(=O)n1C2 (stereo not drawn) [Compound 4.7.4] | 55 |  |
| Cc1c(C(C)O)cc2n(c1=O)Cc1c-2nc2ccc(OC(F)(F)F)cc2c1-c1ccccc1 (stereo not drawn) [Compound 1.8.7, 7-(1-Hydroxyethyl)-8-methyl-12-phenyl-2-trifluoromethoxy-11H-indolizino[1,2-b]quinolin-9-one] |  | 80 |
| CCC(C)C(O)c1cc2n(c(=O)c1C)Cc1c-2nc2ccc(C)cc2c1-c1ccccc1 (stereo not drawn) [Compound 4.8.9] | 55 |  |
| CCCCCc1c2c(nc3ccc(OC)cc13)-c1cc(C(O)C3CCCCC3)c(C)c(=O)n1C2 (stereo not drawn) [Compound 6.7.3] | 65 |  |
| CCCCCc1c2c(nc3ccc(C)cc13)-c1cc(C(O)CC)c(C)c(=O)n1C2 (stereo not drawn) [Compound 3.7.9, 7-(1-Hydroxypropyl)-2,8-dimethyl-1 2-pentyl-11H-indolizino[1,2-b]quinolin-9-one] |  | 75 |
| CCCCCc1c2c(nc3c(F)cccc13)-c1cc(C(O)CC)c(C)c(=O)n1C2 (stereo not drawn) [Compound 3.7.8, 4-Fluoro-7-(1-hydroxypropyl)-8-methyl-12-pentyl-1 1H-indolizino [1,2-b]quinolin-9-one] |  | 82 |
| CCCCc1c2c(nc3ccc(OC(F)(F)F)cc13)-c1cc(C(C)O)c(C)c(=O)n1C2 (stereo not drawn) [Compound 1.6.7, 12-Butyl-7-(1-hydroxyethyl)-8-methyl-2-trifluoromethoxy-11H-indolizino[1,2-b]quinolin-9-one] |  | 75 |
| CCCCCc1c2c(nc3ccc(C(F)(F)F)cc13)-c1cc(C(O)C3CCCCC3)c(C)c(=O)n1C2 (stereo not drawn) [Compound 6.7.4] | 70 |  |
| CCCCc1c2c(nc3c1cn1c(=O)c(C)c(C(O)C(C)C)cc31)=CC=C(OC)C2 (stereo not drawn) [Compound 5.6.3, 12-Butyl-7-(1-hydroxy-2-methylpropyl)-2-methoxy-8-methyl-1H-indolizino[1,2-b]quinolin-9-one] |  | 90 |
| Cc1ccc2nc3c(c(-c4ccccc4)c2c1)Cn1c-3cc(C(C)O)c(C)c1=O (stereo not drawn) [Compound 1.8.9, 7-(1-Hydroxyethyl)-2,8-dimethyl-1 2-phenyl-11H-indolizino[1,2-b]quinolin-9-one] |  | 75 |
| Cc1c(C(O)CCC2CCCCC2)cc2n(c1=O)Cc1c-2nc2ccc(Cl)cc2c1-c1ccccc1 (stereo not drawn) [Compound 7.8.6] | 90 |  |
| CCc1c2c(nc3ccc(F)cc13)-c1cc(C(O)C3CCCCC3)c(C)c(=O)n1C2 (stereo not drawn) [Compound 6.4.2] | 75 |  |
| CCC(C)C(O)c1cc2n(c(=O)c1C)Cc1cc3cc(OC(F)(F)F)ccc3nc1-2 (stereo not drawn) [Compound 4.1.7] | 55 |  |
| Cc1ccc2nc3c(c(-c4ccccc4)c2c1)Cn1c-3cc(C(O)CCC2CCCCC2)c(C)c1=O (stereo not drawn) [Compound 7.8.9] | 61 |  |
| Cc1c(C(O)C2CCCCC2)cc2n(c1=O)Cc1c-2nc2ccc(C(F)(F)F)cc2c1-c1ccccc1 (stereo not drawn) [Compound 6.8.4, 7-(Cyclohexylhydroxymethyl)-8-methyl-12-phenyl-2-trifluoromethyl-11H-indolizino[1,2-b]quinolin-9-one] |  | 81 |

| Compound | % inhibition of RNase H at 20 μM [%] | inhibition at 20 µM [%] |
| --- | --- | --- |
| Cc1ccc2nc3c(cc2c1)Cn1c-3cc(C(O)C2CCCCC2)c(C)c1=O (stereo not drawn) [Compound 6.1.9] | 65 |  |
| CCc1c2c(nc3ccccc13)-c1cc(C(O)C3CCCCC3)c(C)c(=O)n1C2 (stereo not drawn) [Compound 6.4.1] | 65 |  |
| CCCCc1c2c(nc3ccc(OC)cc13)-c1cc(C(O)CC)c(C)c(=O)n1C2 (stereo not drawn) [Compound 3.6.3] | 66 |  |
| CCc1c2c(nc3c(F)cccc13)-c1cc(C(O)CCC3CCCCC3)c(C)c(=O)n1C2 (stereo not drawn) [Compound 7.4.8] | 95 |  |
| CCC(C)C(O)c1cc2n(c(=O)c1C)Cc1c-2nc2ccccc2c1-c1ccccc1 (stereo not drawn) [Compound 4.8.1, 7-(1-Hydroxy-2-methylbutyl)-8-methyl-1 2-phenyl-11H-indolizino[1,2-b]quinolin-9-one] |  | 80 |
| CCCCCc1c2c(nc3ccc(F)cc13)-c1cc(C(O)C3CCCCC3)c(C)c(=O)n1C2 (stereo not drawn) [Compound 6.7.2, 7-(Cyclohexylhydroxymethyl)-2-fluoro-8-methyl-12-pentyl-11H-indolizino[1,2-b]quinolin-9-one] |  | 76 |
| CCCCCc1c2c(nc3ccccc13)-c1cc(C(O)C3CCCCC3)c(C)c(=O)n1C2 (stereo not drawn) [Compound 6.7.1] | 71 |  |
| CCCCCc1c2c(nc3ccc(CC)cc13)-c1cc(C(O)C(C)CC)c(C)c(=O)n1C2 (stereo not drawn) [Compound 4.7.5, 2-Ethyl-7-(1-hydroxy-2-methylbutyl)-8-methyl-1 2-pentyl-11H-indolizino[1,2-b]quinolin-9-one] |  | 100 |
| CCc1c2c(nc3ccc(C(F)(F)F)cc13)-c1cc(C(O)C(C)C)c(C)c(=O)n1C2 (stereo not drawn) [Compound 5.4.4, 1 2-Ethyl-7-(1-hydroxy-2-methylpropyl)-8-methyl-2-trifluoromethyl-11H-indolizino[1,2-b]quinolin-9-one] |  | 87 |
| CCCCCc1c2c(nc3ccc(OC)cc13)-c1cc(C(O)CCC)c(C)c(=O)n1C2 (stereo not drawn) [Compound 2.7.3] | 60 |  |
| CCc1c2c(nc3ccc(OC)cc13)-c1cc(C(O)C3CCCCC3)c(C)c(=O)n1C2 (stereo not drawn) [Compound 6.4.3] | 60 |  |
| Cc1c(C(O)C2CCCCC2)cc2n(c1=O)Cc1c-2nc2ccc(OC(F)(F)F)cc2c1-c1ccccc1 (stereo not drawn) [Compound 6.8.7, 7-(Cyclohexylhydroxymethyl)-8-methyl-1 2-phenyl-2-trifluoromethoxy-11H-indolizino[1,2-b]quinolin-9-one] |  | 87 |
| CCCCc1c2c(nc3ccc(CC)cc13)-c1cc(C(O)C(C)C)c(C)c(=O)n1C2 (stereo not drawn) [Compound 5.6.5] | 100 |  |
| CCCc1c2c(nc3c(F)cccc13)-c1cc(C(O)C(C)CC)c(C)c(=O)n1C2 (stereo not drawn) [Compound 4.5.8] | 55 |  |
| Cc1ccc2nc3c(c(-c4ccccc4)c2c1)Cn1c-3cc(C(O)C(C)C)c(C)c1=O (stereo not drawn) [Compound 5.8.9] | 69 |  |
| CCCCCc1c2c(nc3ccc(F)cc13)-c1cc(C(O)C(C)CC)c(C)c(=O)n1C2 (stereo not drawn) [Compound 4.7.2] | 58 |  |
| CCCC(O)c1cc2n(c(=O)c1C)Cc1c-2nc2ccccc2c1-c1ccccc1 (stereo not drawn) [Compound 2.8.1, 7-(1-Hydroxybutyl)-8-methyl-12-phenyl-11H-indolizino [1,2-b]quinolin-9-one] |  | 83 |
| CCC(O)c1cc2n(c(=O)c1C)Cc1c-2nc2ccccc2c1-c1ccccc1 (stereo not drawn) [Compound 3.8.1] | 74 |  |
| CCCc1c2c(nc3c(F)cccc13)-c1cc(C(O)CCC3CCCCC3)c(C)c(=O)n1C2 (stereo not drawn) [Compound 7.5.8] | 82 |  |
